# Laboratory results as given in ChEMBL document CHEMBL1130254, “Screening solution-phase combinatorial libraries using pulsed ultrafiltration/electrospray mass spectrometry” (J Med Chem, 1997).
# Key:
# [1] = target: T1, Adenosine deaminase (Homo sapiens) (UniProt P00813)
# T1 sequence (whole entry): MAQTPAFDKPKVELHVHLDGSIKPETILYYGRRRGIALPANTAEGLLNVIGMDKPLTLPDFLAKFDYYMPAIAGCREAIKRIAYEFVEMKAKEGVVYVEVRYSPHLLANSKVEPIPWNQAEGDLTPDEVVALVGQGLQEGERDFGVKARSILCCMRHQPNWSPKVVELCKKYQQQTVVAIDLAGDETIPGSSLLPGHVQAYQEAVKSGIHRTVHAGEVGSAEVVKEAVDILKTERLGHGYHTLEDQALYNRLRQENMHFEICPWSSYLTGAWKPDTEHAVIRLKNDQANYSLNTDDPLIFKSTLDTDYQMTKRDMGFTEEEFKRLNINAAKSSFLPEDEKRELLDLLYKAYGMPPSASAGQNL
# Description: Adenosine deaminase inhibition index
# [2] = Relative ion enhancement, determined in pulsed ultrafiltration; type: ADME
SMILES,([I]/[S]0.5) [1],Ion enhancement [2]
CCCCCCCCC(C(C)O)n1cnc2c(N)ncnc21 (stereo unspecified),0.00016,5.3
CC(O)C(Cc1ccccc1)n1cnc2c(N)ncnc21 (stereo unspecified),0.069,< 0.01
CCCCCC[C@@H]([C@@H](C)O)n1cnc2c(N)ncnc21 [EHNA],0.00042,1
